Data as given in ChEMBL document CHEMBL1153039, “Allosteric modulators of the adenosine A1 receptor: synthesis and pharmacological evaluation of 4-substituted 2-amino-3-benzoylthiophenes” (J Med Chem, 2009).
Calls of active or inactive are those of the source. The rule behind the calls is not given here.

Key:
[1] = biological target: T1, Adenosine receptor A1 (Homo sapiens) (UniProt P30542); experiment: Allosteric modulation of human adenosine A1 receptor transfected in CHO FlpIn cells assessed as orthosteric agonist R-PIA-mediated ERK1/2 phosphorylation at 10 uM pretreated 30 mins before R-PIA challenge measured after 1.5 hrs by fluorescence assay; format: functional, cell-based
T1 sequence (whole entry): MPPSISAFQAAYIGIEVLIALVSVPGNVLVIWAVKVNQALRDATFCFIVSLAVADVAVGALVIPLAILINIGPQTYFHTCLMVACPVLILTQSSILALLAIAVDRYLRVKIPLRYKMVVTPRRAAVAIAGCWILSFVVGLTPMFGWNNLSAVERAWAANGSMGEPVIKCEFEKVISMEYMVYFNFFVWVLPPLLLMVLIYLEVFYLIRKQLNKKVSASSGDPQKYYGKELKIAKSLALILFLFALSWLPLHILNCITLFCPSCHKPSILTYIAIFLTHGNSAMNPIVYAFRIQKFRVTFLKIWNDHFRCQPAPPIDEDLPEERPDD

[2] = biological target: T1, Adenosine receptor A1 (Homo sapiens); experiment: Allosteric modulation of human adenosine A1 receptor transfected in CHO FlpIn cells assessed as orthosteric agonist R-PIA-mediated ERK1/2 phosphorylation at 3 uM pretreated 30 mins before R-PIA challenge measured after 1.5 hrs by fluorescence assay; format: functional, cell-based
[3] = biological target: T1, Adenosine receptor A1 (Homo sapiens); experiment: […] at human adenosine A1 receptor transfected in CHO FlpIn cells assessed as potentiation of orthosteric agonist R-PIA-mediated [35S]GTPgammaS binding at 0.1 to 3 uM after 60 mins by liquid scintillation counting; format: functional, cell-based
[4] = biological target: T1, Adenosine receptor A1 (Homo sapiens); experiment: Allosteric modulation of human adenosine A1 receptor transfected in CHO FlpIn cells assessed as orthosteric agonist R-PIA-mediated ERK1/2 phosphorylation at 0.1 to 3 uM pretreated 30 mins before R-PIA challenge measured after 1.5 hrs by fluorescence assay; format: functional, cell-based
[5] = biological target: T1, Adenosine receptor A1 (Homo sapiens); experiment: Binding affinity to allosteric site of unoccupied human adenosine A1 receptor transfected in CHO FlpIn cells as potentiation of orthosteric agonist R-PIA-mediated [35S]GTPgammaS binding after 60 mins by liquid scintillation counting; format: functional, cell-based
[6] = biological target: T1, Adenosine receptor A1 (Homo sapiens); experiment: Binding affinity to allosteric site of unoccupied human adenosine A1 receptor transfected in CHO FlpIn cells assessed as potentiation of orthosteric agonist R-PIA-mediated ERK1/2 phosphorylation pretreated 30 mins before R-PIA challenge measured after 1.5 hrs by fluorescence assay; format: cell-based

SMILES	Activity [1] [%]	Activity [2] [%]	Activity [3]	Activity [4]	pKb [5]	pKb [6]
Nc1scc(-c2ccc(Br)cc2)c1C(=O)c1ccc(Cl)cc1	46	45	–	–	–	–
Nc1scc(-c2cccc(C(F)(F)F)c2)c1C(=O)c1ccccc1	59	83	Active	Active	5.96	6.37
Nc1scc(-c2cccc(C(F)(F)F)c2)c1C(=O)c1ccc(Cl)cc1	73	64	–	–	–	–
COc1ccc(-c2csc(N)c2C(=O)c2ccccc2)cc1	52	52	–	–	–	–
Nc1scc(-c2cccc(Cl)c2)c1C(=O)c1ccc(Cl)cc1	75	58	–	–	–	–
COc1ccc(-c2csc(N)c2C(=O)c2ccc(Cl)cc2)cc1	55	51	–	–	–	–
Nc1scc(-c2cccc(Br)c2)c1C(=O)c1ccc(Cl)cc1	69	62	–	–	–	–
Nc1scc(-c2cccc([N+](=O)[O-])c2)c1C(=O)c1ccccc1	50	47	–	–	–	–
Nc1scc(-c2cc(C(F)(F)F)cc(C(F)(F)F)c2)c1C(=O)c1ccc(Cl)cc1	74	69	–	–	–	–
Nc1scc(-c2cc(C(F)(F)F)cc(C(F)(F)F)c2)c1C(=O)c1ccccc1	93	83	Active	Active	5.82	5.22
Nc1scc(-c2cccc(F)c2)c1C(=O)c1ccc(Cl)cc1	90	76	–	–	–	–
COc1cccc(-c2csc(N)c2C(=O)c2ccc(Cl)cc2)c1	60	58	–	–	–	–
Nc1scc(-c2ccc3ccccc3c2)c1C(=O)c1ccc(Cl)cc1	67	54	–	–	–	–
Nc1scc(-c2cccc([N+](=O)[O-])c2)c1C(=O)c1ccc(Cl)cc1	42	53	–	–	–	–
Nc1scc(-c2ccc(I)cc2)c1C(=O)c1ccc(Cl)cc1	61	54	–	–	–	–
Nc1scc(-c2ccc(F)cc2)c1C(=O)c1ccc(Cl)cc1	61	62	–	–	–	–
Nc1scc(-c2ccc([N+](=O)[O-])cc2)c1C(=O)c1ccccc1	47	50	–	–	–	–
Nc1scc(-c2ccccc2)c1C(=O)c1ccc(Cl)cc1	64	51	–	–	–	–
Nc1scc(-c2ccc([N+](=O)[O-])cc2)c1C(=O)c1ccc(Cl)cc1	52	47	–	–	–	–
COc1cccc(-c2csc(N)c2C(=O)c2ccccc2)c1	34	41	–	–	–	–
Nc1scc(-c2ccc(Cl)cc2)c1C(=O)c1ccc(Cl)cc1	50	50	–	–	–	–

The remaining lines, values ahead:

Activity [1] [%]	Activity [2] [%]	Activity [3]	Activity [4]	pKb [5]	pKb [6]	SMILES
50	51	–	–	–	–	Nc1scc(-c2ccc(I)cc2)c1C(=O)c1ccccc1
48	49	–	–	–	–	Nc1scc(-c2ccccc2)c1C(=O)c1ccccc1
76	67	–	–	–	–	Nc1scc(-c2cccc(Br)c2)c1C(=O)c1ccccc1
49	46	–	–	–	–	Nc1scc(-c2ccc(Br)cc2)c1C(=O)c1ccccc1
52	51	–	–	–	–	Nc1scc(-c2cccc(F)c2)c1C(=O)c1ccccc1
51	46	–	–	–	–	Nc1scc(-c2ccc(Cl)cc2)c1C(=O)c1ccccc1
60	51	–	–	–	–	Nc1scc(-c2ccc(F)cc2)c1C(=O)c1ccccc1
73	55	–	–	–	–	Nc1scc(-c2ccc3ccccc3c2)c1C(=O)c1ccccc1
52	45	–	–	–	–	Nc1scc(-c2cccc(Cl)c2)c1C(=O)c1ccccc1
68	55	–	–	–	–	Nc1scc(-c2ccccc2F)c1C(=O)c1ccccc1
87	70	–	–	–	–	Nc1scc(-c2ccccc2F)c1C(=O)c1ccc(Cl)cc1
